PMC7932537, “Quantitative profiling of protease specificity” (PLoS Computational Biology, 2021)

Test system: MMP-2
Test: Substrate phage display with NGS: relative probability (RP) of P3-P1' tetramer clusters
Assay type: biochemical, human
Conditions: MMP2 - no binning; average relative probability (RP) of the P3-P1' tetramer; redundant tetramers have been averaged out

| Substance | avg_RP |
| --- | --- |
| YMHI | 0 |
| GFAL | 0.4341 |
| TMWL | 5.1973 |
| VGVL | 7.4169 |
| PAHL | 34.5554 |
| HLNI | 0.0853 |
| MFSL | 0.2905 |
| PQHL | 31.2196 |
| AWMM | 1.3213 |
| PSLI | 16.6444 |
| IASL | 32.8949 |
| VYRL | 5.0832 |
| VRHI | 19.1429 |
| AHAL | 27.1646 |
| NLPL | 4.8994 |
| VNRI | 0 |
| LARL | 21.3172 |
| AQMI | 2.3525 |
| YRFM | 0 |
| PQAV | 23.1021 |
| AFTM | 0 |
| AWHL | 5.5662 |
| LWRI | 0 |
| TAWL | 24.7743 |
| PLSW | 31.2944 |
| ANYI | 1.6587 |
| PLNL | 34.7054 |

| Substance | avg_RP |
| --- | --- |
| GDRL | 0 |
| ANMI | 1.6014 |
| IDLL | 0.1325 |
| WASM | 16.5169 |
| GNFL | 0.2435 |
| VFRL | 1.3631 |
| VEPL | 2.5219 |
| AGRL | 3.4801 |
| YSHL | 14.1084 |
| SLRL | 0 |
| SGAY | 6.7841 |
| MLGL | 16.6463 |
| AKHL | 9.4662 |
| PLDM | 20.8822 |
| PGSM | 25.6264 |
| YAHY | 10.8158 |
| AKML | 2.8249 |
| VMRL | 0.4281 |
| INFL | 7.787 |
| VWKL | 0.2836 |
| PVNM | 30.0312 |
| VMKL | 0.3599 |
| SARL | 4.5839 |
| HMHM | 0 |
| TWSM | 0 |
| VRNL | 29.2567 |

Same assay, conditions: MMP2 - no binning; average relative probability of the P3-P1' tetramer; redundant tetramers have been averaged out

| Substance | avg_RP |
| --- | --- |
| VYDL | 1.2439 |
| VWNI | 4.0144 |
| PSSL | 35.4913 |
| VFAL | 11.8827 |
| QMSL | 0.2763 |
| ARWL | 19.0362 |
| SGRL | 0.7262 |
| SQSL | 5.003 |
| WHNM | 0 |
| LAHI | 25.9365 |
| VWHV | 0 |
| TLHL | 2.4714 |
| GANL | 13.1428 |
| PNWL | 26.5667 |
| ARQL | 3.2139 |
| VMLM | 0.5571 |
| PGWL | 33.1284 |
| PEWM | 12.3271 |
| LRWW | 6.3129 |
| MRHL | 14.413 |
| LRHL | 22.7972 |
| AHLL | 1.4368 |

| Substance | avg_RP |
| --- | --- |
| AWYL | 0.0964 |
| ALAL | 22.1184 |
| FLHM | 0.2069 |
| SGFL | 6.5712 |
| IHFL | 4.5373 |
| LASL [P3-P1' tetramer cluster] | 31.1996 |
| AQAL | 22.7358 |
| FGNL | 26.0275 |
| MWHL | 0.2013 |
| LQNL | 27.5155 |
| AHSL | 21.0212 |
| LGHL [P3-P1' tetramer cluster] | 31.1653 |
| VMNL | 18.6016 |
| AYHM | 3.7603 |
| AMRM | 0.1716 |
| PRWM | 32.3694 |
| PLHL | 34.1843 |
| VSYL | 20.2936 |
| VNSL | 13.3292 |
| YAYI | 1.7086 |
| ISHL | 30.7015 |
| IYAL | 6.9669 |

| Substance | avg_RP |
| --- | --- |
| PLNW | 28.8158 |
| GMNM | 0 |
| VMSL | 14.6983 |
| AFNL | 16.2959 |
| YASM | 24.1553 |
| PRYW | 20.9965 |
| PRAW | 34.1791 |
| VSEL | 24.0996 |
| VRML | 15.9125 |
| LASQ | 21.0724 |
| QLAM | 5.2406 |
| PAGL [P3-P1' tetramer cluster] | 36.0156 |
| SLPL | 8.6373 |
| AVAL | 27.4369 |
| VKHL | 14.8595 |
| FSNL | 24 |
| VNNL | 17.6966 |
| FLHW | 0.0579 |
| VELL | 0 |
| TQHL | 2.9223 |
| ARSM | 12.2991 |
| FLHL | 0.8093 |

| Substance | avg_RP |
| --- | --- |
| WLNL | 0.1218 |
| HQNL | 17.7487 |
| PLAS | 26.7589 |
| RRNL | 6.1579 |
| VFNL | 14.497 |
| SWSL | 0.0547 |
| AQPL | 14.4283 |
| ASGL | 25.6721 |
| LKHL | 11.1441 |
| GWAL | 0.0916 |
| VHRL | 1.5304 |
| PKQL | 26.0949 |
| ARAW | 17.4628 |
| PYML | 24.9477 |
| PMQL | 27.6586 |
| WSGM | 18.3143 |
| FSEL | 12.1057 |
| VWWQ | 0.2844 |
| ASAL | 28.9092 |

Same assay, conditions: MMP2 - no binning; average relative probability of the tetramer; redundant tetramers averaged out

| Substance | avg_RP |
| --- | --- |
| IRML | 12.7446 |
| VRLL | 4.002 |
| VRAV | 10.114 |
| YMSL | 0.0725 |
| PKLI | 0.9254 |
| PRSM | 32.6673 |
| MNSL | 18.7113 |
| GAHL | 8.4636 |
| PSGF | 31.2448 |
| HFHL | 0.0941 |
| PMDY | 10.9087 |
| PWHI | 10.946 |
| PLLL | 15.2696 |
| VYNL | 19.1818 |
| GLYL | 0.0762 |
| PWSL | 28.5684 |
| AYHL | 15.3364 |
| VQHL | 22.9738 |
| PGLL | 24.9611 |
| WSWL | 7.8776 |
| PRGM | 34.3819 |
| TRWY | 6.7229 |

| Substance | avg_RP |
| --- | --- |
| PSTL | 30.1803 |
| SLNL | 3.3019 |
| FSHL | 16.5216 |
| PRWL | 34.1809 |
| AWNL | 14.0049 |
| PEFL | 12.0159 |
| VRAL | 30.4312 |
| PLNS | 18.9358 |
| PQGM | 29.6059 |
| PRNI | 31.9621 |
| PVHL | 32.2352 |
| AIPL | 24.8904 |
| PYHI | 15.3574 |
| SGHL | 1.458 |
| SRGL | 6.1644 |
| AYSL | 18.7071 |
| PSGW | 32.6048 |
| PLGI | 33.936 |
| SNWL | 9.68 |
| MLHL | 8.4169 |
| PYSL | 30.7259 |
| PMWS | 5.1021 |

| Substance | avg_RP |
| --- | --- |
| PLGM | 34.1118 |
| SGAL | 13.4712 |
| LRML | 9.0498 |
| PGRL | 29.6024 |
| VMGI | 12.4242 |
| QLSL | 0.4979 |
| PEPL | 26.8179 |
| PNPL | 23.6266 |
| WASI | 12.5247 |
| PRGN | 16.6168 |
| PRFI | 22.3274 |
| VYLL | 1.2276 |
| WYGI | 0.0533 |
| PVPM | 31.3308 |
| ASHL | 19.8208 |
| LMGL | 28.5499 |
| PYHL | 27.2418 |
| VFEL | 0.8652 |
| PKNQ | 13.2723 |
| PLKI | 14.0985 |
| PMGL | 34.7865 |
| VAYL | 26.5348 |

| Substance | avg_RP |
| --- | --- |
| ARGL | 25.9476 |
| PVWM | 25.8126 |
| VRKL | 0 |
| LGYL | 24.8925 |
| VRHV | 9.5401 |
| LGNL | 33.3542 |
| MSHL | 24.6165 |
| PLSY | 31.2477 |
| PRNV | 26.6015 |
| ANNL | 18.8719 |
| IAAM | 28.6184 |
| VRAH | 14.8064 |
| IRYL | 17.8741 |
| VFWY | 6.3003 |
| PAQM | 28.6142 |
| WRGL | 23.375 |
| LNST | 0.4784 |
| YLHL | 0.4077 |
| FRHL | 3.942 |

Same assay, conditions: tetramer annotation of MMP-2 cleavage sites in physiologic substrates from MEROPS

| Substance | relative probability (RP) |
| --- | --- |
| FAPG | 0.08 |

Same assay, conditions: tetramer clusters unique to the MMP-2 selectome, MMP-2 RP

| Substance | relative_probability |
| --- | --- |
| LASL [P3-P1' tetramer cluster] | 31.20 |
| MGWI [P3-P1' tetramer cluster] | 29.72 |
| LGHL [P3-P1' tetramer cluster] | 31.17 |
| LANW [P3-P1' tetramer cluster] | 29.93 |

Same assay, conditions: tetramer probability in MMP2 set / naive library; 200 nM protease, 2 h, 37°C

| Substance | relative probability (RP) |
| --- | --- |
| PAGL [P3-P1' tetramer cluster] | 36.0156 |

Same assay, conditions: tetramer projected onto MMP-2 cleavage sites determined by Prudova et al. (2010)

| Substance | relative probability (RP) |
| --- | --- |
| PRNL [P3-P1' tetramer cluster] | 35.13 |

Target: T1, MMP-2 (Homo sapiens, UniProt P08253)
T1 sequence (P08253 110-660): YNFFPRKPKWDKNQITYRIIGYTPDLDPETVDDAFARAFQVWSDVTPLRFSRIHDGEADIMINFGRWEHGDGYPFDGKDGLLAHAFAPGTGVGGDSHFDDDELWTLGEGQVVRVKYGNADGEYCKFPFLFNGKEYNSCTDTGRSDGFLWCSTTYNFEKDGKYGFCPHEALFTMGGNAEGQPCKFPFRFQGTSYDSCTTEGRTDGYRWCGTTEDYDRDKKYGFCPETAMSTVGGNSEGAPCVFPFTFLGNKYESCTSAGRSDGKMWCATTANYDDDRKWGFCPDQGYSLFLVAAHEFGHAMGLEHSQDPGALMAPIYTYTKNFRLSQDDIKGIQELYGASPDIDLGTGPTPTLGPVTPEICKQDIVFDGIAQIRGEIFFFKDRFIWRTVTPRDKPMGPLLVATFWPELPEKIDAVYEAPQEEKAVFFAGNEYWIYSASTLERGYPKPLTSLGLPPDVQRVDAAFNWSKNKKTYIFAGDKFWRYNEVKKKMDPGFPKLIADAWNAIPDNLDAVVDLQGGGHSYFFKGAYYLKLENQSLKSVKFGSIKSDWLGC
Test: K(obs) of individual phage substrates (set of 1369)
Assay type: biochemical
Conditions: MMP2; individual phage substrates, set of 1369 peptides; cleavage position marked by '-' in the sequence

| Kobs [M⁻¹ s⁻¹] | Substance |
| --- | --- |
| 10866.7 | GKVRN-LTTAS |

Target: MMP-9 (Homo sapiens, UniProt P14780)
Test: as above
Assay type: biochemical
Conditions: MMP9; individual phage substrates, set of 1369 peptides; '-' marks the cleavage position (P1-P1')

MMP-9, sequence (P14780 94-707): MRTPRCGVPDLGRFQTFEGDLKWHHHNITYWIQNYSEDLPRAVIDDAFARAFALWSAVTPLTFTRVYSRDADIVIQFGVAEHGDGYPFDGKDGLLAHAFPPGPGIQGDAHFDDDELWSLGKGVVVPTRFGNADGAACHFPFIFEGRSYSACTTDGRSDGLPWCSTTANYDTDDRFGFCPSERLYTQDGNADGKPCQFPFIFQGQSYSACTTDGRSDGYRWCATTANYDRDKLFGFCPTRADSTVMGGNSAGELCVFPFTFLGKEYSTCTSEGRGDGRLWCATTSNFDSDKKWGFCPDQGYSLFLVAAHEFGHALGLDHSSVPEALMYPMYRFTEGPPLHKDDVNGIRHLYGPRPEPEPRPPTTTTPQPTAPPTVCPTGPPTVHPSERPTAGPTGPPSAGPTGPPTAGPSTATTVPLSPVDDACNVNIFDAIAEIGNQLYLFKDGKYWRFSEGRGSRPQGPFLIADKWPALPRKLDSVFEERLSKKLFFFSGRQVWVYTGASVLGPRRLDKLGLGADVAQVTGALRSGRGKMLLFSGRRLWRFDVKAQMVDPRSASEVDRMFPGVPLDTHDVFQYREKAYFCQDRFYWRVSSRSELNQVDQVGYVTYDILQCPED

| Kobs [M⁻¹ s⁻¹] | Substance |
| --- | --- |
| 8321.48 | GKVRN-LTTAS |
